Where “and” joins values, the source holds several entries; their conditions need not be identical. Equal values may be shown once. Marks after values point to notes of the source that are not given here.
Key:
[1] = target: T1, GluN1a–GluN2B ATD heterodimer (UniProt A0A1L8F5J9+Q00960, N348D/N350Q/N61Q); test: ITC, ligands titrated into isolated GluN1a–GluN2B ATD heterodimer; type: binding, Xenopus GluN1a, rat GluN2B
T1 construct: the ATD domains of Xenopus GluN1a and rat GluN2B; alkaline phosphatase secretion signal (N); 57 residue linker to the other ATD, with TEV protease sites (cleaved yes); made in house
Description: In order to directly estimate binding affinities of these inhibitors for their binding site in the GluN1–GluN2B NMDA receptors, we performed ITC using the purified GluN1a–GluN2B ATD proteins titrated with ligands of various N-substituent lengths at pH 7.6 and pH 6.5 to mimic the extreme drop in pH that can occur at the ischemic core[1]–[4] (Fig. 2a, b; Supplementary Figures 2 and 3). Toward this end, we expressed the isolated […] GluN1a–GluN2B ATD heterodimer proteins in GnTI^− HEK293S cells. Here, for clarity we will call the GluN1 ATD with and without exon 5 GluN1b ATD and GluN1a ATD, respectively.
To efficiently express the ATD domains of Xenopus GluN1a and rat GluN2B, we used the alkaline phosphatase secretion signal and fused the two domains with a 57 residue linker as described elsewhere, with the following modifications: due to an intrinsic thrombin site in the GluN2B ATD, we engineering Tobacco Etch Virus (TEV) protease sites into this construct to remove the linker. In addition, three glycosylation sites were removed by mutating GluN1a Asn61 and Asn371 to Gln, and GluN2B Asn348 was mutated to Asp.
Cell cultures were maintained at 37 °C with 5% CO2 and grown to a density of 2.0–2.5 × 10^6 cells mL^−1, then infected with baculovirus. Sodium butyrate was added to the infected cells to a final concentration of 5 mM and culture medium containing secreted GluN1a–GluN2B ATD fusion protein was harvested 96 h after infection.
Cells were removed from the medium by centrifugation and the clarified medium was concentrated and exchanged three times to cold TBS (200 mM NaCl, 20 mM Tris, pH 8.0) using tangential flow filtration with a molecular weight cutoff of 30 kDa (Pall Corporation). […] The following day, glutathione in a 10:1 ratio, reduced:oxidized, was added to the dialyzed protein to a final concentration of 3 mM, along with EDTA, pH 8.0, to a final concentration of 1 mM. Based on the protein yield, a 1:100 ratio of TEV protease (mass:mass, TEV:ATD) was added to the ATD solution and the reaction was incubated for 4 h at 18 °C. Next, EndoF1 endoglycosidase at a 1:5 ratio (mass:mass, EndoF1:ATD) was added to the ATD/TEV mixture and dialyzed overnight at room temperature to 2 L TBS with 10% glycerol and 20 mM imidazole.
This sample was then dialyzed overnight at 4 °C to 2 L TBS with 20% glycerol. […]
After dialysis, the protein sample was diluted to 10–15 μM and dimethyl sulfoxide (DMSO) was added to a final concentration of 1.5% (v/v), in order to match that of the ligand solution. […] Dilution enthalpy was calculated from post-saturation injections and subtracted from total heats, and the data were fit using a single-site model with the program OriginLab 7.5.

[2] = target: GluN1b–GluN2B ATD heterodimer (Xenopus laevis; Rattus norvegicus, UniProt A0A1L8F5J9+Q00960, E186G/INS190SKKRNYENLDQLSYDNKRGPK/N348D/N350Q/N61Q); test: ITC, ifenprodil titrated into isolated GluN1b–GluN2B ATD used for crystallization; type: binding; conditions: pH 7.6
[3] = target: GluN1b–GluN2B ATD heterodimer (Xenopus laevis; Rattus norvegicus, UniProt A0A1L8F5J9+Q00960, E186G/INS190[…]/N348D/N350Q/N61Q); test: as above; type: binding; conditions: pH 7.6
[4] = target: T2, GluN1-4a/GluN2B (WT) NMDA receptor (Rattus norvegicus, UniProt P35439+Q00960); test: TEVC concentration–response in Xenopus oocytes, wild type GluN1-4a/GluN2B; type: cell-based; conditions: for Ifenprodil DR, response at 0.01: ifenprodil at 0.01; for Ifenprodil DR, response at 0.01 / Ifenprodil DR, response at 0.03 / Ifenprodil DR, response at 0.1: relative to 100/100 G/G; for Ifenprodil DR, response at 0.03: ifenprodil at 0.03; for Ifenprodil DR, response at 0.1: ifenprodil at 0.1
T2 construct: compared to that observed for full-length receptors in TEVC recordings; expressed in transfected cells; host or cells: Xenopus laevis oocytes, cRNA injection
Description: Missense mutations were introduced into rat cDNAs encoding GluN1-4a and GluN2B in the pGEM-HE vector using the QuikChange protocol (Stratagene) using the primers listed in Supplementary Table 2. These plasmids were then linearized with NotI and used as templates for cRNA synthesis (Ambion). A total mass of 5–10 ng cRNA at a 1:2 weight ratio of GluN1-4a and GluN2B transcripts was co-injected into defolliculated Xenopus laevis oocytes (EcoCyte Bioscience). The oocytes were incubated in Barth’s solution containing 88 mM NaCl, 2.4 mM NaHCO3, 1 mM KCl, 0.33 mM Ca(NO3)2, 0.41 mM CaCl2, 0.82 mM MgSO4, and 5 mM HEPES, at a final pH of 7.4, supplemented with 0.1 mg mL^−1 gentamicin sulfate, 1 μg mL^−1 streptomycin, and 1 U mL^−1 penicillin at 15–19 °C. TEVC current recordings were performed 2–4 days after injection using an extracellular recording solution containing 90 mM NaCl, 10 mM HEPES, 1 mM KCl, 0.5 mM BaCl2, and 0.01 mM EDTA at either pH 6.9 or pH 7.6[39]. Voltage clamp was achieved and current responses were recorded at a holding potential of –40 mV with a two-electrode voltage clamp amplifier (Warner) at room temperature (~23 °C). Currents were low-pass filtered at 10 Hz and digitized at 20 Hz by LabWindows/CVI (National Instruments). […]

[5] = target: T3, GluN1-4a(Y109W)/GluN2B NMDA receptor (Rattus norvegicus, UniProt P35439+Q00960, Y109W); test: TEVC concentration–response, GluN1-4a(Y109W) mutant; type: cell-based; conditions: pH 7.6; BAPTA (Table 3)
T3 construct: compared to that observed for full-length receptors in TEVC recordings; expressed in transfected cells; host or cells: Xenopus laevis oocytes, cRNA injection
Description: Missense mutations were introduced into rat cDNAs encoding GluN1-4a and GluN2B in the pGEM-HE vector using the QuikChange protocol (Stratagene) using the primers listed in Supplementary Table 2. These plasmids were then linearized with NotI and used as templates for cRNA synthesis (Ambion). A total mass of 5–10 ng cRNA at a 1:2 weight ratio of GluN1-4a and GluN2B transcripts was co-injected into defolliculated Xenopus laevis oocytes (EcoCyte Bioscience). The oocytes were incubated in Barth’s solution containing 88 mM NaCl, 2.4 mM NaHCO3, 1 mM KCl, 0.33 mM Ca(NO3)2, 0.41 mM CaCl2, 0.82 mM MgSO4, and 5 mM HEPES, at a final pH of 7.4, supplemented with 0.1 mg mL^−1 gentamicin sulfate, 1 μg mL^−1 streptomycin, and 1 U mL^−1 penicillin at 15–19 °C. TEVC current recordings were performed 2–4 days after injection using an extracellular recording solution containing 90 mM NaCl, 10 mM HEPES, 1 mM KCl, 0.5 mM BaCl2, and 0.01 mM EDTA at either pH 6.9 or pH 7.6[39]. Voltage clamp was achieved and current responses were recorded at a holding potential of –40 mV with a two-electrode voltage clamp amplifier (Warner) at room temperature (~23 °C). Currents were low-pass filtered at 10 Hz and digitized at 20 Hz by LabWindows/CVI (National Instruments). Maximal effective concentrations of glutamate and glycine (100 and 30 μM, respectively) were used in all recordings.

[6] = target: T4, GluN1-4a(H134A)/GluN2B NMDA receptor (Rattus norvegicus, UniProt P35439+Q00960, H134A); test: TEVC concentration–response, GluN1-4a(H134A) mutant; type: cell-based; conditions: pH 7.6; BAPTA (Table 3)
T4 construct: compared to that observed for full-length receptors in TEVC recordings; expressed in transfected cells; host or cells: Xenopus laevis oocytes, cRNA injection
Description: Missense mutations were introduced into rat cDNAs encoding GluN1-4a and GluN2B in the pGEM-HE vector using the QuikChange protocol (Stratagene) using the primers listed in Supplementary Table 2. These plasmids were then linearized with NotI and used as templates for cRNA synthesis (Ambion). A total mass of 5–10 ng cRNA at a 1:2 weight ratio of GluN1-4a and GluN2B transcripts was co-injected into defolliculated Xenopus laevis oocytes (EcoCyte Bioscience). […] Voltage clamp was achieved and current responses were recorded at a holding potential of –40 mV with a two-electrode voltage clamp amplifier (Warner) at room temperature (~23 °C). Currents were low-pass filtered at 10 Hz and digitized at 20 Hz by LabWindows/CVI (National Instruments). Maximal effective concentrations of glutamate and glycine (100 and 30 μM, respectively) were used in all recordings.

T2 sequence (Q00960 27-1482, other chains not shown): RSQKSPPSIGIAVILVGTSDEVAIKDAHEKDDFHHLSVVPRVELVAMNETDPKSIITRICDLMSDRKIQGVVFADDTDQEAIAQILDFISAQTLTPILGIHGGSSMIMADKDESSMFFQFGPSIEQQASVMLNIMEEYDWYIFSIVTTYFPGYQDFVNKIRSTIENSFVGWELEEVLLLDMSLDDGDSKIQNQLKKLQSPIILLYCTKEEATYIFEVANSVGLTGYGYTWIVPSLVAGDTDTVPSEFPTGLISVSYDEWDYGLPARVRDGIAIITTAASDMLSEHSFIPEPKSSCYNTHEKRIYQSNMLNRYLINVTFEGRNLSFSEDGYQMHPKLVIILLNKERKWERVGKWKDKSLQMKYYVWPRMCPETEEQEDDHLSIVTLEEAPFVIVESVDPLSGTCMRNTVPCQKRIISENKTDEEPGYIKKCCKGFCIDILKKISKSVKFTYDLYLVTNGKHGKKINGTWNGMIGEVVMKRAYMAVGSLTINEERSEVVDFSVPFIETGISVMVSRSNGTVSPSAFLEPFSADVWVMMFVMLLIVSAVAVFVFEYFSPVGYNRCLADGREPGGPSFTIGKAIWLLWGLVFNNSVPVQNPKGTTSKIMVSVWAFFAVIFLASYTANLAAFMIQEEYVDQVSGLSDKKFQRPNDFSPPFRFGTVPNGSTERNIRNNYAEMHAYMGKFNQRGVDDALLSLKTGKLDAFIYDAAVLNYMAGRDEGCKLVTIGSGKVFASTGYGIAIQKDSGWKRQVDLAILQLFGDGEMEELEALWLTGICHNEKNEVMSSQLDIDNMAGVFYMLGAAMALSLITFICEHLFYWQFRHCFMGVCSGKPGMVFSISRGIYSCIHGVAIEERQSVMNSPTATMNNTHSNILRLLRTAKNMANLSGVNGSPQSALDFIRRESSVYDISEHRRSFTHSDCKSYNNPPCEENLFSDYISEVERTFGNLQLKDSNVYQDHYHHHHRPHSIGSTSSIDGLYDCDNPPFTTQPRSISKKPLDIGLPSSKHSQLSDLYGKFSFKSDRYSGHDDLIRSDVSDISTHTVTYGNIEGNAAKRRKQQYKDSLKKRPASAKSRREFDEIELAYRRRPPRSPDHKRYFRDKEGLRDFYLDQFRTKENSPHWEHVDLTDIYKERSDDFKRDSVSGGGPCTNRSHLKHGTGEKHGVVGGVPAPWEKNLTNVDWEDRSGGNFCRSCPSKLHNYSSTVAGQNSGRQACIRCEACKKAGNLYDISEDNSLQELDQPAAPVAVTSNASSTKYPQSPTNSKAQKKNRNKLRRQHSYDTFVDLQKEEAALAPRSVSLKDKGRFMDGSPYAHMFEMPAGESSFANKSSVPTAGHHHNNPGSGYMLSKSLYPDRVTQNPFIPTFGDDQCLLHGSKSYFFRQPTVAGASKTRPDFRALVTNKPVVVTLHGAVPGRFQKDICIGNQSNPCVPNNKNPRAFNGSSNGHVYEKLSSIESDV
T1 sequence (Q00960 31-394 N348D limits assumed, other chains not shown): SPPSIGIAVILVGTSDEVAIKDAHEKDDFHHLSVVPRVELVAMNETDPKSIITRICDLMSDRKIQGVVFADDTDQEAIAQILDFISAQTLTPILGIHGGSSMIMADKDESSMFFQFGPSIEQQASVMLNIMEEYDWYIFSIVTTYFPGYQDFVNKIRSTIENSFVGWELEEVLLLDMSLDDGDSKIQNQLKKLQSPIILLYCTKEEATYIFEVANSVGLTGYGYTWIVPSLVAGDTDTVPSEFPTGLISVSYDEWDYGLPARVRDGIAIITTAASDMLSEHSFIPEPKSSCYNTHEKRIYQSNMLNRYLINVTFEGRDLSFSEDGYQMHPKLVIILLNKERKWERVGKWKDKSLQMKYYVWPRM
Sequence of UniProt Q00960 (Q00960 32-394 N348D, other chains not shown): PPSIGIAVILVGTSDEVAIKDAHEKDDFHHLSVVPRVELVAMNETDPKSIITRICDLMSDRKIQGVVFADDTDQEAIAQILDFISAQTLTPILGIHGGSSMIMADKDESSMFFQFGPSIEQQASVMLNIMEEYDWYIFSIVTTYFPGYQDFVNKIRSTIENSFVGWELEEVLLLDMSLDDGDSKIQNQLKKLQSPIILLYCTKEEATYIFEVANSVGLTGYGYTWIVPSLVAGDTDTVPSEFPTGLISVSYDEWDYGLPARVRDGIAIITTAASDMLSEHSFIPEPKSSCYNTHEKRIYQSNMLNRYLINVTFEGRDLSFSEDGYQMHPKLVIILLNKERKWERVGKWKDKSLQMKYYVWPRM
Sequence of GluN1b–GluN2B ATD heterodimer (Xenopus laevis; Rattus norvegicus, UniProt A0A1L8F5J9+Q00960, E186G/INS190[…]/N348D/N350Q/N61Q) (Q00960 32-394 N348D, other chains not shown): as above
T4 sequence (Q00960 27-1482, other chains not shown): as the sequence (Q00960 27-1482, other chains not shown) above

CC(C(O)c1ccc(O)cc1)N1CCC(Cc2ccccc2)CC1 (centres unmarked) [Ifenprodil, Ifenprodil hemitartrate]
Kd ([1]; pH 6.5): 249 ± 16 nM | Kd ([1]; pH 7.6): 226 ± 15 nM | n (ITC stoichiometry) ([1]; pH 6.5): 0.97 ± 0.01 | n (ITC stoichiometry) ([1]; pH 7.6): 1.0 ± 0.01 | Kd [2]: 255 ± 11 nM | n (ITC stoichiometry) [3]: 0.98 ± 0.01 | nH ([4]; 1-4a/2B WT, pH7.6, BAPTA, ifenprodil): 0.8364 and 0.9502 and 1.0632 and 0.8875 and 0.8992 and 1.197 and 1.038 | Ifenprodil DR, response at 0.01 ([4]; 1-4a/2B WT, pH7.6, BAPTA): 89.9 and 98.2 and 90 and 89 and 92.8 and 95.6 and 95.4 | Ifenprodil DR, response at 0.01 ([4]; 1-4a/2B WT, pH7.6, BAPTA, mean): 92.9857 | Ifenprodil DR, response at 0.03 ([4]; 1-4a/2B WT, pH7.6, BAPTA): 78.8 and 96.7 and 76.5 and 75.3 and 82 and 88.4 and 87 | Ifenprodil DR, response at 0.03 ([4]; 1-4a/2B WT, pH7.6, BAPTA, mean): 83.5286 | Ifenprodil DR, response at 0.1 ([4]; 1-4a/2B WT, pH7.6, BAPTA): 64.2 and 90.5 and 49.1 and 54.7 and 63.1 and 64.1 and 66.9 | Ifenprodil DR, response at 0.1 ([4]; 1-4a/2B WT, pH7.6, BAPTA, mean): 64.6571 | nH ([4]; 1-4a/2B WT, pH7.6, BAPTA, ifenprodil, mean): 0.9818 | nH ([4]; Ifenprodil DR, 1-4a/2B WT, pH7.6, BAPTA, single oocyte recordings, row 'mean' = mean): 0.8875 and 0.8992 and 1.197 and 1.038 and 0.8364 and 0.9502 and 1.0632 | nH ([4]; Ifenprodil DR, 1-4a/2B WT, pH7.6, BAPTA, single oocyte recordings, row 'mean' = mean, mean): 0.9818 | % response ([4]; current at 1 μM ifenprodil, pH 7.6, BAPTA): 35% | nH ([4]; pH 7.6, BAPTA (Table 3)): 1.0 | % response, current at maximal ifenprodil potentiation [5]: ND, 115%^f nH ND (9) | % response, current at maximal ifenprodil potentiation [6]: ND, 105%^f nH ND (9)

From paper PMC6338780, “Structural elements of a pH-sensitive inhibitor binding site in NMDA receptors” (Nature Communications, 2019)
